Experiment [1] concerns drug-resistant strain of Venturia nashicola. Kind of experiment: Preventive effect on scab of pear, drug-resistant strain. The following applies: 200 ppm active ingredient, pear seedlings, spray.
Method: (§1) The leaves examined were measured for a percentage of infected area and classified into the corresponding disease indices, 0, 0.5, 1, 2, 4:
(§2) The disease severity was calculated according to the following equation: [formula]
(§3) The prevention value was calculated according to the following equation: [formula]
(§4) A plastic pot of 90 ml volume was filled with sandy soil, and seeds of pear (var: Chojuro) were sowed . therein. Cultivation was carried out in a greenhouse for 20 days. Onto the resulting seedlings, the test compound formulated in emulsifiable concentrate or wettable powder and diluted with water was sprayed at a rate of 10 ml per pot. Then, the seedlings were inoculated with a spore suspension of the drug-resistant or drug-sensitive strain of Venturia nashicola by spraying. The resulting plants were placed at 20°C under a condition of high humidity for 3 days and then at 20°C under irradiation with a fluorescent lamp for 20 days.
Experiment [2] has as its system drug-sensitive strain of Venturia nashicola. Kind of experiment: Preventive effect on scab of pear, drug-sensitive strain. To be noted: 200 ppm active ingredient, pear seedlings, spray.
Method: as §1, §2, §3, §4
In experiment [3] the test system is drug-resistant strain of Botrytis cinerea. Kind of experiment: Preventive effect on gray mold of cucumber, drug-resistant strain. To be noted: 200 ppm active ingredient, cucumber seedlings, mycelial disks, 3 days.
Method: as §1, §2, §3
(§5) Preventive effect on gray mold of cucumber (Botrytis cinerea):-
(§6) Plastic pots of 90 ml volume were filled with sandy soil, and seeds of cucumber (var: Sagami-hanjiro) were sowed therein. Cultivation was carried out in a greenhouse for 8 days to obtain cucumber seedlings expanding cotyledons. Onto the resulting seedlings, the test compound formulated in emulsifiable concentrate or wettable powder and diluted with water was sprayed at a rate of 10 ml per pot. After air-drying, the seedlings were inoculated with mycelial disks (5 mm in diameter) of the drug-resistant or drug-sensitive strain of Botrytis cinerea by putting them on the leaf surfaces. After the plants were infected by incubating under high humidity at 20°C for 3 days, the rates of disease severity were observed.
In experiment [4] the test system is drug-sensitive strain of Botrytis cinerea. Put plainly: Preventive effect on gray mold of cucumber, drug-sensitive strain. The following applies: 200 ppm active ingredient, cucumber seedlings, mycelial disks, 3 days.
Method: as §1, §2, §3, §5, §6
Experiment [5] concerns drug-resistant strain of Sphaerotheca fuliginea. To be noted: for pest or weed control at 200 ppm: Podosphaera fuliginea, in Cucumis sativus, topical, 240 h, read-out: Prevention value when inoculated with drug-resistant strain; for Prevention value when inoculated with drug-resistant strain: 200 ppm active ingredient, cucumber seedlings, spray, 10 days after inoculation.
Method: (§7) Protective activity test on powdery mildew of cucumber (Sphaerotheca fuliginea):-
(§8) A flower pot of 90 ml volume was filed with sandy soil, and seeds of cucumber (var: Sagami-hanjiro) were sowed therein. Cultivation was carried out in a greenhouse for 8 days. Onto the resulting seedlings having cotyledons, the test compound formulated in emulsifiable concentrate or wettable powder and diluted with water was sprayed at a rate of 10 ml per pot. Then, the seedlings were inoculated with a spore suspension of the drug-resistant or drug-sensitive strain of Sphaerotheca fuliginea by spraying and further cultivated in the greenhouse. Ten days thereafter, the infectious state of-the plants was observed.
as §1, §2, §3
The test system of experiment [6] is drug-sensitive strain of Sphaerotheca fuliginea. To be noted: for pest or weed control at 200 ppm: Podosphaera fuliginea, in Cucumis sativus, topical, 240 h, read-out: Prevention value when inoculated with drug-sensitive strain; for Prevention value when inoculated with drug-sensitive strain: 200 ppm active ingredient, cucumber seedlings, spray, 10 days after inoculation.
Method: as §7, §8, §1, §2, §3

Experiment [7] relates to drug-resistant strain of Cercospora beticola. To be noted: for pest or weed control at 200 ppm: Cercospora beticola, in Beta vulgaris, topical, 240 h, read-out: Prevention value when inoculated with drug-resistant strain; for Prevention value when inoculated with drug-resistant strain: 200 ppm active ingredient, sugarbeet seedlings, spray, 10 days.
Method: as §1, §2, §3
(§9) Preventive effect on cercospora leaf spot of sugarbeet (Cercospora beticola):-A flower pot of 90 ml volume was filled with sandy soil, and seeds of sugarbeet (var: Detroit dark red) were sowed therein. Cultivation was carried out in a greenhouse for 20 days. Onto the resulting seedlings, the test compound formulated in emulsifiable concentrate or wettable powder and diluted with water was sprayed at a rate of 10 ml per pot. Then, the seedlings were inoculated with a spore suspension of the drug-resistant or drug-sensitive strain of Cercospora beticola by spraying. The pot was covered with a polyvinyl chloride sheet to make a condition of high humidity, and cultivation was continued in the greenhouse for 10 days.
Experiment [8] concerns drug-sensitive strain of Cercospora beticola. The following applies: for pest or weed control at 200 ppm: Cercospora beticola, in Beta vulgaris, topical, 240 h, read-out: Prevention value when inoculated with drug-sensitive strain; for Prevention value when inoculated with drug-sensitive strain: 200 ppm active ingredient, sugarbeet seedlings, spray, 10 days.
Method: as §1, §2, §3, §9
For the next experiment, the system named is Pyricularia oryzae. To be noted: in vivo.

Regarding `CCCCNC(=O)n1c(NC(=O)OC)nc2ccccc21` [A, Methyl 1-(butyl-carbamoyl)benz-imidazol-2-yl-carbamate], the “Prevention value when inoculated with drug-resistant strain” value in [1] and in experiment [3] was 0% throughout. Further, the “Prevention value when inoculated with drug-sensitive strain” value in experiment [2] and in experiment [4] was 100% each time. Moreover, the pest or weed control at 200 ppm was 0% in experiment [5], 100% in experiment [6], 0% in experiment [7] and 100% in [8].

As for `O=C(Nc1cccc(Cl)c1)OCC#CCCl` [Barban, 4-chloro-2-butynyl N-(3-chlorophenyl)carbamate], the pest or weed control at 200 ppm is 25% in experiment [5], 0% in [6], 34% in experiment [7] and 0% in experiment [8].

For `COC(=O)Nc1nc2ccccc2[nH]1` [C, Methyl benzimidazol-2-ylcarbamate], the pest or weed control at 200 ppm worked out at 0% in experiment [5], 100% in [6], 0% in experiment [7] and 100% in experiment [8].

On to `O=C(Nc1cccc(Cl)c1)OCCCl` [CEPC], for which the “Prevention value when inoculated with drug-resistant strain” value in experiment [5] and in experiment [7] was 0% each time. Also, the “Prevention value when inoculated with drug-sensitive strain” value in experiment [6] and in experiment [8] was 0% each time.

In the case of `C#CC(C)OC(=O)Nc1cccc(Cl)c1` (stereo not drawn) [Chlorbufam, 1-methyl-2-propynyl N-(3-chlorophenyl)carbamate], the pest or weed control at 200 ppm in [5] came out at 0%; in experiment [6] it was 100%; in experiment [7] it was 0%; in [8] it was 100%.

With `CC(C)OC(=O)Nc1cccc(Cl)c1` [Chlorpropham, isopropyl N-(3-chlorophenyl)carbamate], the pest or weed control at 200 ppm in experiment [5], in experiment [6], in experiment [7] and in [8] was 0% throughout.

On to `CCOc1ccc(NC(=O)OC(C)C)cc1CC` [Compound No. 50, isopropyl N-(3-ethyl-4-ethoxyphenyl)carbamate], for which the “Prevention value when inoculated with drug-resistant strain” value is 98% in experiment [1] and 100% in experiment [3]. In addition, the “Prevention value when inoculated with drug-sensitive strain” value in [2] and in [4] was 0% in each case. In addition, the pest or weed control at 200 ppm in [5] was determined as 100%; in [6], 0%; in [7], 100%; in experiment [8] it was 0%.

As to `CCOc1ccc(N(C(=O)OC(C)C)C(=O)c2ccccc2)cc1COC` [Compound No. 134, isopropyl N-benzoyl-N-(3-methoxymethyl-4-ethoxyphenyl)carbamate], the “Prevention value when inoculated with drug-resistant strain” value in experiment [3] worked out at 100%. Also, the “Prevention value when inoculated with drug-sensitive strain” value in experiment [4] turned out to be 0%.

Consider `COC(=O)NC(=S)Nc1ccccc1NC(=S)NC(=O)OC` [E, 1,2-Bis(3-methoxy-carbonyl-2-thio-ureido)benzene], for which the “Prevention value when inoculated with drug-resistant strain” value in experiment [1] and in [3] was 0% throughout. Moreover, the “Prevention value when inoculated with drug-sensitive strain” value in experiment [2] and in [4] was 100% throughout. Moreover, the pest or weed control at 200 ppm in experiment [5] was 0%; in experiment [6], 100%; in [7], 0%; in experiment [8], 100%.

Turning to `CCOP(=O)(Sc1ccccc1)Sc1ccccc1` [Edifenphos], the Prevention value in the experiment on Pyricularia oryzae worked out at 97%.

For the compound `CC(C)OC(=O)Nc1ccccc1` [Propham, isopropyl N-phenylcarbamate], the pest or weed control at 200 ppm in [5], in experiment [6], in experiment [7] and in experiment [8] was 0% throughout.

With `COC(=O)Nc1ccc(Cl)c(Cl)c1` [Swep], the “Prevention value when inoculated with drug-resistant strain” value in [5] and in [7] was 0% each time. The “Prevention value when inoculated with drug-sensitive strain” value in [6] and in experiment [8] was 0% throughout.

`CCOc1ccc(NC(=O)OC(C)C)cc1COC` [compound 77, isopropyl N-(3-methoxymethyl-4-ethoxyphenyl)carbamate]: the “Prevention value when inoculated with drug-resistant strain” value in [1] and in [3] was 100% throughout. For the same compound, the “Prevention value when inoculated with drug-sensitive strain” value in experiment [2] and in experiment [4] was 0% throughout. Further, the pest or weed control at 200 ppm in experiment [5] worked out at 100%; in experiment [6], 0%; in [7], 100%; in experiment [8], 0%.

The record behind these values is EP0093620A1, “Fungicidal N-phenylcarbamates” (priority 1982, dated 1983).
